# According to patent US12139492B2 (Endotarget Inc., priority 2021, dated 2024):
# Like-named read-outs stand apart in the source and are kept apart here.
# Assays:
# JeKo-1 cells = test: Antiproliferative effect, MTS cell viability assay, JeKo-1 cells; format: cell-based; details: Homo sapiens; JeKo-1 mantle cell lymphoma cells; read-out: IC50 (anti-proliferation) JeKO-1 cells
# How it was run: (§1)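 Cells were exposed to compound at 0, 0.001, 0.01, 0.1, 1 and 10 μM for 72 h. Viability was then measured by MTS assay, reading formazan produced by metabolically active cells as absorbance at 490 nm.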
# Mino cells = test: Antiproliferative effect, MTS cell viability assay, Mino cells; format: cell-based; details: Homo sapiens, Mino mantle cell lymphoma cells, read-out: IC50 (anti-proliferation) Mino cells
# How it was run: as §1
# BTK = BTK (Homo sapiens, UniProt Q06187); test: Degradation of BTK protein in Namalwa cells (Western blot; DC50, Dmax); details: for DC50: read-out: DC50 (BTK degradation), concentration giving 50% reduction of BTK expression level, cell line not given; for Dmax: read-out: Dmax (BTK degradation)
# Chain of BTK (Q06187 whole entry): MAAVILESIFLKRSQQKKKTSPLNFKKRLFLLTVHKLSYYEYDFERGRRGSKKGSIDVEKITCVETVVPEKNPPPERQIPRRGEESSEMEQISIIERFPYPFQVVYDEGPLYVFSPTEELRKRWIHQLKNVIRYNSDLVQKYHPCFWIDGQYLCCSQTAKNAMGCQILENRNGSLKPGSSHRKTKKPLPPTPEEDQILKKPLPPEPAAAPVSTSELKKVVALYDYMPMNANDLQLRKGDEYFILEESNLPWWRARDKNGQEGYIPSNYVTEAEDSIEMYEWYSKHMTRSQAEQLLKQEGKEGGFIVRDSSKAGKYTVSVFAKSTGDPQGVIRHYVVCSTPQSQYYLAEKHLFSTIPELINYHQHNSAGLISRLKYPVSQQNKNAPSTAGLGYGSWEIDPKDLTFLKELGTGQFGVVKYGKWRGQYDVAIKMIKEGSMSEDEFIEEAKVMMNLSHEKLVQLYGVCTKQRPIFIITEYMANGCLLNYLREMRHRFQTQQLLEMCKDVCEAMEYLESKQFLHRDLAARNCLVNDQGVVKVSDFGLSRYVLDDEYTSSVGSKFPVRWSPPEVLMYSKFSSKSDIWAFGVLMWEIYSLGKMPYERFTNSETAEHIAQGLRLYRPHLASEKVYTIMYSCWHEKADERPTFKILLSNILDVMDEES
DC50 (BTK) [µM],Dmax (BTK) [%],"degradation of BTK protein (BTK; Namalwa B lymphocyte cells, various concentrations, 24 hours, Western blot)",SMILES,IC50 (JeKo-1 cells) [µM],IC50 (Mino cells; MINO) [µM],IC50 (Mino cells) [µM]
0.01 to 0.05,> 75,,"Nc1ncnc2c1c(-c1ccc(Oc3ccccc3)cc1)nn2C1CCN(CCN2CCC(CN3CCN(c4ccc5c(c4)CN(C4CCC(=O)NC4=O)C5=O)CC3)C2)CC1 (stereo not drawn) [Compound 456, 3-(5-(4-((1-(2-(4-(4-amino-3-(4-phenoxyphenyl)-1H-pyrazolo[3,4-d]pyrimidin-1-yl)piperidin-1-yl)ethyl)pyrrolidin-3-yl)methyl)piperazin-1-yl)-1-oxoisoindolin-2-yl)piperidine-2,6-dione]",1 to 10,1 to 10,
> 0.05,> 50,,"Nc1ncnc2c1c(-c1ccc(Oc3ccccc3)cc1)nn2C1CCN(CCN2CCC(N3CCN(c4ccc5c(c4)CN(C4CCC(=O)NC4=O)C5=O)CC3)CC2)CC1 (stereo not drawn) [Compound 458, 3-(5-(4-(1-(2-(4-(4-amino-3-(4-phenoxyphenyl)-1H-pyrazolo[3,4-d]pyrimidin-1-yl)piperidin-1-yl)ethyl)piperidin-4-yl)piperazin-1-yl)-1-oxoisoindolin-2-yl)piperidine-2,6-dione]",1 to 10,1 to 10,
0.01 to 0.05,> 75,,"Nc1ncnc2c1c(-c1ccc(Oc3ccccc3)cc1)nn2C1CCN(CCN2CCC(N3CCN(c4ccc5c(c4)CN(C4CCC(=O)NC4=O)C5=O)CC3)C2)CC1 (stereo not drawn) [Compound 460, 3-(5-(4-(1-(2-(4-(4-amino-3-(4-phenoxyphenyl)-1H-pyrazolo[3,4-d]pyrimidin-1-yl)piperidin-1-yl)ethyl)pyrrolidin-3-yl)piperazin-1-yl)-1-oxoisoindolin-2-yl)piperidine-2,6-dione]",1 to 10,1 to 10,
< 0.01,> 90,,"Nc1ncnc2c1c(-c1ccc(Oc3ccccc3)cc1)nn2C1CCN(CCN2CC(CN3CCN(c4ccc5c(c4)C(=O)N(C4CCC(=O)NC4=O)C5=O)CC3)C2)CC1 (stereo not drawn) [Compound 461, 5-(4-((1-(2-(4-(4-amino-3-(4-phenoxyphenyl)-1H-pyrazolo[3,4-d]pyrimidin-1-yl)piperidin-1-yl)ethyl)azetidin-3-yl)methyl)piperazin-1-yl)-2-(2,6-dioxopiperidin-3-yl)isoindoline-1,3-dione]",< 1,< 1,
0.01 to 0.05,> 50,,"Nc1ncnc2c1c(-c1ccc(Oc3ccccc3)cc1)nn2C1CCN(CCN2CC(CN3CCN(c4ccc5c(c4)CN(C4CCC(=O)NC4=O)C5=O)CC3)C2)CC1 (stereo not drawn) [Compound 462, 3-(5-(4-((1-(2-(4-(4-amino-3-(4-phenoxyphenyl)-1H-pyrazolo[3,4-d]pyrimidin-1-yl)piperidin-1-yl)ethyl)azetidin-3-yl)methyl)piperazin-1-yl)-1-oxoisoindolin-2-yl)piperidine-2,6-dione]",1 to 10,1 to 10,

# More lines, now with the values behind:
SMILES,DC50 (BTK) [µM],Dmax (BTK) [%],"degradation of BTK protein (BTK; Namalwa B lymphocyte cells, various concentrations, 24 hours, Western blot)",IC50 (JeKo-1 cells) [µM],IC50 (Mino cells; MINO) [µM],IC50 (Mino cells) [µM]
"Nc1ncnc2c1c(-c1ccc(Oc3ccccc3)cc1)nn2C1CCN(C[C@@H]2CCN(C[C@H]3CCN(c4ccc5c(c4)C(=O)N(C4CCC(=O)NC4=O)C5=O)C3)C2)CC1 (stereo partly drawn) [Compound 447d, 5-((R)-3-(((S)-3-((4-(4-amino-3-(4-phenoxyphenyl)-1H-pyrazolo[3,4-d]pyrimidin-1-yl)piperidin-1-yl)methyl)pyrrolidin-1-yl)methyl)pyrrolidin-1-yl)-2-(2,6-dioxopiperidin-3-yl)isoindoline-1,3-dione]",0.01 to 0.05,> 90,,1 to 10,1 to 10,
"Nc1ncnc2c1c(-c1ccc(Oc3ccccc3)cc1)nn2C1CCN(CC2CCN(CC3CCN(c4ccc5c(c4)CN(C4CCC(=O)NC4=O)C5=O)C3)C2)CC1 (stereo not drawn) [Compound 448, 3-(5-(3-((3-((4-(4-amino-3-(4-phenoxyphenyl)-1H-pyrazolo[3,4-d]pyrimidin-1-yl)piperidin-1-yl)methyl)pyrrolidin-1-yl)methyl)pyrrolidin-1-yl)-1-oxoisoindolin-2-yl)piperidine-2,6-dione]",0.01 to 0.05,> 90,,1 to 10,1 to 10,
"Nc1ncnc2c1c(-c1ccc(Oc3ccccc3)cc1)nn2C1CCN([C@H]2CCN(CC3CCN(c4ccc5c(c4)C(=O)N(C4CCC(=O)NC4=O)C5=O)CC3)C2)CC1 (stereo partly drawn) [Compound 449a, 5-(4-(((S)-3-(4-(4-amino-3-(4-phenoxyphenyl)-1H-pyrazolo[3,4-d]pyrimidin-1-yl)piperidin-1-yl)pyrrolidin-1-yl)methyl)piperidin-1-yl)-2-(2,6-dioxopiperidin-3-yl)isoindoline-1,3-dione]",< 0.01,> 90,,< 1,< 1,
"Nc1ncnc2c1c(-c1ccc(Oc3ccccc3)cc1)nn2C1CCN([C@@H]2CCN(CC3CCN(c4ccc5c(c4)C(=O)N(C4CCC(=O)NC4=O)C5=O)CC3)C2)CC1 (stereo partly drawn) [Compound 449b, 5-(4-(((R)-3-(4-(4-amino-3-(4-phenoxyphenyl)-1H-pyrazolo[3,4-d]pyrimidin-1-yl)piperidin-1-yl)pyrrolidin-1-yl)methyl)piperidin-1-yl)-2-(2,6-dioxopiperidin-3-yl)isoindoline-1,3-dione]",< 0.01,> 90,,< 1,< 1,
"Nc1ncnc2c1c(-c1ccc(Oc3ccccc3)cc1)nn2C1CCN(C2CCN(CC3CCN(c4ccc5c(c4)CN(C4CCC(=O)NC4=O)C5=O)CC3)C2)CC1 (stereo not drawn) [Compound 450, 3-(5-(4-((3-(4-(4-amino-3-(4-phenoxyphenyl)-1H-pyrazolo[3,4-d]pyrimidin-1-yl)piperidin-1-yl)pyrrolidin-1-yl)methyl)piperidin-1-yl)-1-oxoisoindolin-2-yl)piperidine-2,6-dione]",0.01 to 0.05,> 75,,1 to 10,1 to 10,
"Nc1ncnc2c1c(-c1ccc(Oc3ccccc3)cc1)nn2C1CCN(C2CCN(CC3CCN(c4ccc5c(c4)C(=O)N(C4CCC(=O)NC4=O)C5=O)C3)C2)CC1 (stereo not drawn) [Compound 451, 5-(3-((3-(4-(4-amino-3-(4-phenoxyphenyl)-1H-pyrazolo[3,4-d]pyrimidin-1-yl)piperidin-1-yl)pyrrolidin-1-yl)methyl)pyrrolidin-1-yl)-2-(2,6-dioxopiperidin-3-yl)isoindoline-1,3-dione]",< 0.01,> 90,dose-dependent degradation,1 to 10,< 1,
"Nc1ncnc2c1c(-c1ccc(Oc3ccccc3)cc1)nn2C1CCN(C2CCN(CC3CCN(c4ccc5c(c4)CN(C4CCC(=O)NC4=O)C5=O)C3)C2)CC1 (stereo not drawn) [Compound 452, 3-(5-(3-((3-(4-(4-amino-3-(4-phenoxyphenyl)-1H-pyrazolo[3,4-d]pyrimidin-1-yl)piperidin-1-yl)pyrrolidin-1-yl)methyl)pyrrolidin-1-yl)-1-oxoisoindolin-2-yl)piperidine-2,6-dione]",0.01 to 0.05,> 75,,1 to 10,< 1,
"Nc1ncnc2c1c(-c1ccc(Oc3ccccc3)cc1)nn2C1CCN(CCN2CCC(CN3CCN(c4ccc5c(c4)C(=O)N(C4CCC(=O)NC4=O)C5=O)CC3)CC2)CC1 (stereo not drawn) [Compound 453, 5-(4-((1-(2-(4-(4-amino-3-(4-phenoxyphenyl)-1H-pyrazolo(3,4-d)pyrimidin-1-yl)piperidin-1-yl)ethyl)piperidin-4-yl)methyl)piperazin-1-yl)-2-(2,6-dioxopiperidin-3-yl)isoindoline-1,3-dione]",0.01 to 0.05,> 90,,1 to 10,,1 to 10
"Nc1ncnc2c1c(-c1ccc(Oc3ccccc3)cc1)nn2C1CCN(CCN2CCC(CN3CCN(c4ccc5c(c4)CN(C4CCC(=O)NC4=O)C5=O)CC3)CC2)CC1 (stereo not drawn) [Compound 454, 3-(5-(4-((1-(2-(4-(4-amino-3-(4-phenoxyphenyl)-1H-pyrazolo[3,4-d]pyrimidin-1-yl)piperidin-1-yl)ethyl)piperidin-4-yl)methyl)piperazin-1-yl)-1-oxoisoindolin-2-yl)piperidine-2,6-dione]",> 0.05,> 50,,1 to 10,> 10,
"Nc1ncnc2c1c(-c1ccc(Oc3ccccc3)cc1)nn2C1CCN(CCN2CCC(CN3CCN(c4ccc5c(c4)C(=O)N(C4CCC(=O)NC4=O)C5=O)CC3)C2)CC1 (stereo not drawn) [Compound 455, 5-(4-((1-(2-(4-(4-amino-3-(4-phenoxyphenyl)-1H-pyrazolo(3,4-d)pyrimidin-1-yl)piperidin-1-yl)ethyl)pyrrolidin-3-yl)methyl)piperazin-1-yl)-2-(2,6-dioxopiperidin-3-yl)isoindoline-1,3-dione]",< 0.01,> 90,,< 1,,< 1
"Nc1ncnc2c1c(-c1ccc(Oc3ccccc3)cc1)nn2C1CCN(CCN2CCC(N3CCN(c4ccc5c(c4)C(=O)N(C4CCC(=O)NC4=O)C5=O)CC3)CC2)CC1 (stereo not drawn) [Compound 457, 5-(4-(1-(2-(4-(4-amino-3-(4-phenoxyphenyl)-1H-pyrazolo(3,4-d)pyrimidin-1-vi)piperidin-1-yl)ethyl)piperidin-4-yl)piperazin-1-yl)-2-(2,6-dioxopiperidin-3-yl)isoindoline-1,3-dione]",< 0.01,> 90,,< 1,,< 1
"Nc1ncnc2c1c(-c1ccc(Oc3ccccc3)cc1)nn2C1CCN(CCN2CCC(N3CCN(c4ccc5c(c4)C(=O)N(C4CCC(=O)NC4=O)C5=O)CC3)C2)CC1 (stereo not drawn) [Compound 459, 5-(4-(1-(2-(4-(4-amino-3-(4-phenoxyphenyl)-1H-pyrazolo(3,4-d)pyrimidin-1-yl)piperidin-1-yl)ethyl)pyrrolidin-3-yl)piperazin-1-yl)-2-(2,6-dioxopiperidin-3-yl)isoindoline-1,3-dione]",< 0.01,> 90,,< 1,,< 1
